Experimental data from the CheMixHub viscosity set.

Test: xn = mol fraction of the nth substance listed

CC1OC(C)OC(C)O1 (configuration not stated) + CC1COC(=O)O1
viscosity [mPa·s], 101.3 kPa
Details	x1 = 0.091	x1 = 0.2019	x1 = 0.3007	x1 = 0.4055	x1 = 0.5011	x1 = 0.6022	x1 = 0.7006	x1 = 0.8028	x1 = 0.9028
293.15 K	2.641	2.499	2.364	2.215	2.07	1.91	1.75	1.577	1.402
298.15 K	–	–	–	–	–	–	–	1.412	1.26
303.15 K	2.161	2.027	1.907	1.779	1.661	1.531	1.402	1.268	1.134
308.15 K	1.969	1.843	1.732	1.614	1.505	1.385	1.267	1.144	1.024

Oc1ccc2ccccc2c1 + CCCO
viscosity [mPa·s], 101 kPa
Details	x1 = 0.04	x1 = 0.08	x1 = 0.12	x1 = 0.16	x1 = 0.2
293.15 K	2.6	3.004	3.529	4.172	4.954
303.15 K	2.025	2.288	2.658	3.1	3.63
313.15 K	1.635	1.803	2.062	2.37	2.764
323.15 K	1.326	1.447	1.636	1.869	2.168

COCCOCCOCCOC + CC1COC(=O)O1
298.15 K, 101.33 kPa
Details	viscosity [mPa·s]
x1 = 0.0049	2.492
x1 = 0.0113	2.496
x1 = 0.0249	2.504
x1 = 0.0352	2.516
x1 = 0.0525	2.523
x1 = 0.0833	2.536
x1 = 0.1358	2.56
x1 = 0.1928	2.568
x1 = 0.2559	2.561
x1 = 0.3083	2.543
x1 = 0.3356	2.539
x1 = 0.393	2.494
x1 = 0.466	2.444
x1 = 0.4902	2.428
x1 = 0.5272	2.402
x1 = 0.5728	2.361
x1 = 0.6242	2.308
x1 = 0.6786	2.254
x1 = 0.7038	2.227
x1 = 0.8165	2.127
x1 = 0.8598	2.088
x1 = 0.8959	2.047
x1 = 0.9347	2.021
x1 = 0.964	1.99

Nc1ccccc1 + CCCCCCCCO
viscosity [mPa·s], 100 kPa
Details	x1 = 0.0862	x1 = 0.1575	x1 = 0.2382	x1 = 0.3514	x1 = 0.4471	x1 = 0.5637	x1 = 0.6558	x1 = 0.7476	x1 = 0.8555	x1 = 0.9421
293.15 K	8.01	7.27	6.6	5.83	5.28	4.66	4.4	4.19	4.03	4.14
303.15 K	5.66	5.15	4.7	4.15	3.77	3.36	3.15	3.03	2.93	3
313.15 K	4.11	3.75	3.47	3.1	2.85	2.57	2.43	2.34	2.3	2.36
323.15 K	3.09	2.85	2.63	2.37	2.18	1.98	1.89	1.83	1.81	1.86

COCCOCCOCCOC + CCCCCCCCCO
101 kPa
Details	viscosity [mPa·s]
293.15 K, x1 = 0.06286	8.733
293.15 K, x1 = 0.0721	8.424
293.15 K, x1 = 0.157	6.409
293.15 K, x1 = 0.1967	5.797
293.15 K, x1 = 0.3999	3.779
293.15 K, x1 = 0.4952	3.246
293.15 K, x1 = 0.5949	2.852
293.15 K, x1 = 0.6909	2.575
293.15 K, x1 = 0.7539	2.434
293.15 K, x1 = 0.8907	2.226
293.15 K, x1 = 0.9525	2.165
303.15 K, x1 = 0.06693	6.211
303.15 K, x1 = 0.08755	5.811
303.15 K, x1 = 0.1949	4.339
303.15 K, x1 = 0.2889	3.545
303.15 K, x1 = 0.3982	2.936
303.15 K, x1 = 0.4875	2.576
303.15 K, x1 = 0.5926	2.286
303.15 K, x1 = 0.698	2.082
303.15 K, x1 = 0.7829	1.952
303.15 K, x1 = 0.9059	1.83
303.15 K, x1 = 0.9404	1.795
313.15 K, x1 = 0.05997	4.72
313.15 K, x1 = 0.1	4.218
313.15 K, x1 = 0.1977	3.34
313.15 K, x1 = 0.2965	2.774
313.15 K, x1 = 0.3974	2.365
313.15 K, x1 = 0.4862	2.111
313.15 K, x1 = 0.5834	1.9
313.15 K, x1 = 0.6643	1.767
313.15 K, x1 = 0.802	1.635
313.15 K, x1 = 0.915	1.521
313.15 K, x1 = 0.9497	1.503

Nc1ccccc1 + CC(=O)O
viscosity [mPa·s]
Details	298.15 K	308.15 K	323.15 K
101.3 kPa, x1 = 0.0382	2.15	1.72	1.27
101.3 kPa, x1 = 0.0652	3.65	2.72	1.83
101.3 kPa, x1 = 0.0972	5.78	4.07	2.51
101.3 kPa, x1 = 0.132	8.79	5.69	3.26
101.3 kPa, x1 = 0.186	14.2	8.51	4.27
101.3 kPa, x1 = 0.229	18.5	10.5	5.14
101.3 kPa, x1 = 0.257	20.3	11.4	5.4
101.3 kPa, x1 = 0.286	20.8	11.6	5.52
101.3 kPa, x1 = 0.3	21.2	11.8	5.58
101.3 kPa, x1 = 0.333	20.5	11.6	5.43
101.3 kPa, x1 = 0.35	20.1	11.1	5.33
101.3 kPa, x1 = 0.377	19	10.7	5.16
101.3 kPa, x1 = 0.425	15.9	9.01	4.61
101.3 kPa, x1 = 0.497	13.5	7.7	4.03
101.3 kPa, x1 = 0.546	10.7	6.51	3.6
101.3 kPa, x1 = 0.675	6.68	4.48	–
101.3 kPa, x1 = 0.799	5.08	3.61	2.39
101.3 kPa, x1 = 0.86	4.57	3.3	2.25
101.33 kPa, x1 = 0.1058	7.29	–	2.96
101.33 kPa, x1 = 0.1746	12.3	–	–
101.33 kPa, x1 = 0.2824	21.9	–	5.65
101.33 kPa, x1 = 0.3086	21.4	–	5.58
101.33 kPa, x1 = 0.3408	20.3	–	5.23
101.33 kPa, x1 = 0.3878	18.1	–	–
101.33 kPa, x1 = 0.5159	11.8	–	3.82

CC(C)(C)O + CCCCCCCCCC
Details	viscosity [mPa·s]
323.15 K, 101 kPa, x1 = 0.9499	1.155
